Reference: patent US11078496B2, “System for F-box hormone receptor regulated protein expression in mammalian cells” (ICAHN SCHOOL OF MEDICINE AT MOUNT SINAI, priority 2016, dated 2021)

Tested on: human ESCs
Assay: Proliferation of H9 ESCs under coronatine (growth curves)
Type: cell-based
Settings: H9 cells expressing pJAZ NLS-GFP-OsJAZ^33, 50 μM coronatine vs 0.1% DMSO, counted daily
Source text: FIG. 10A is a sequence alignment of O. sativa coronatine-degradable proteins (Tan et al., “Mechanism of Auxin Perception by the TIR1 Ubiquitin Ligase,” Nature 446:640-645 (2007), which is hereby incorporated by reference in its entirety) OsJAZ1 (NP_001064513.1; SEQ ID NO: 4), OsJAZ2 (NP_001049167.1; SEQ ID NO: 5), OsJAZ7 (NP_001063273.1; SEQ ID NO: 6), OsJAZ3 (NP_001049166.1; SEQ ID NO: 7), and A. thaliana AtJAZ1 (NP_564075; SEQ ID NO: 8). Degron sequences used in this study are highlighted and degron names indicated on the right. […] GFP level was analyzed by flow cytometry and % degradation was calculated as described in the Methods. […] FIG. 10F show GFP fluorescence histograms derived from flow cytometric analysis of HEK-293T cells infected with the indicated pJAZ versions, selected and treated with either 0.1% DMSO (“Con”) or 50 μM coronatine (“Cor”). Parental HEK-293T cells were analyzed as a control for background autofluorescence. […] FIG. 10H show the relative median fluorescence of HEK-293T cells infected with pJAZ 7 harboring either GFP-OsJAZ^33 or NLS-GFP-OsJAZ^33. Cells were selected and treated with increasing concentrations of coronatine (“Cor”) and analyzed after 24 hours (left panel), or with 50 μM coronatine for the indicated time periods (right panel). GFP fluorescence was analyzed by flow cytometry. […] Cells were counted daily and growth curves are plotted in FIG. 10K. […]

Question: For `CC[C@H]1C=C(C(=O)N[C@@]2(C(=O)O)C[C@@H]2CC)[C@H]2CCC(=O)[C@H]2C1` [coronatine, Coronatine], which effect on proliferation is on record?
Answer: does not affect proliferation
